Test results published in publication PMC12491715 (Acta Pharmaceutica Sinica. B, 2025).

How the values were obtained:
[1] = Aqueous stability (UPLC); type: physicochemical
Description: For the aqueous stability determination, UPLC analyses were performed as described under Chemistry–General Information. The method used a Waters Acquity UPLC® HSS C18 SB column (2.1 mm× 50 mm, 1.8 μm) thermostated at 40 °C, with: injection volume, 5 μL; flow rate, 0.4 mL/min; detector λ, 220 nm; mobile phase A: 0.1% TFA (v/v) in MilliQ water; mobile phase B: MeCN. Gradient: 0–5 min, 20%–100% B; 5–6 min, 20% B.
Compound stock solutions (100 mmol/L) were prepared in absolute EtOH, while the internal standard (caffeine) was dissolved in PBS (0.1 mg/mL). The aqueous stability solutions were prepared by mixing 1200 μL PBS with internal standard, 150 μL absolute EtOH, and 150 μL compound stock solution in a HPLC vial to give 10 mmol/L compound concentration in PBS/EtOH = 80:20, which was injected immediately and then at hourly intervals for 48 h. The analyte AUCs were normalized on internal standard AUCs and compared with the timepoint zero. For the rate calculation, pseudo-first order kinetics were assumed.
For investigation of compound 8 stability in an aqueous medium, its stock solution (10,000 mg/L) was prepared in EtOH. 15 μL of the stock solution was mixed with 60 μL of caffeine (2500 mg/L in EtOH) and 1425 μL of the respective aqueous solution/buffer to achieve final concentration of 100 mg/L with 5% ethanol content. The UPLC analysis was carried as described above.

[2] = system: ICR mice icv-injected with Aβ1–42; experiment: Novel object recognition, mice model with icv-injection of Aβ1–42; type: in vivo; conditions: ip, once a day, vs rivastigmine 4
Description: (§1) Mice model with icv-injection of Aβ1–42 The experiments were performed using ICR male mice (8–10 weeks old, weight 18–20 g), which were purchased from Shanghai Bikai Animal Breeding Factory (Shanghai, China). Animals were housed in cages (6 mice per cage) at a constant temperature of 25±2 °C, humidity of 55%±10% and a light/dark (12:12) cycle. The mice had unlimited access to food and water prior to the experiment. Specified conditions for the maintenance of mice were ensured throughout the experiments, including tree bedding (Yizheng Anlimao Biotechnology Co., Ltd., China) and lab feed (Zimao, China). For behavioural tests, mice were selected randomly, each group consisted of 6 mice. The experiments were performed between 9 am and 3 pm.
(§2) According to the literature procedure, recombinant human hexafluoroisopropanol-pretreated Aβ1–42 from Merck Millipore (Darmstadt, Germany) was dissolved in 1% DMSO, diluted with saline to the final concentration of 2 mg/mL, and incubated for 72 h to form oligomers. […]
Novel object recognition experiment was performed in a maze with dimensions 50 cm×50 cm×40 cm, with black cuboid (4 cm×4 cm×5 cm) as the old object, and white cylinder (2r = 5 cm, h = 5 cm) as the new object. […] Time spent exploring new and old objects was recorded using ANY-maze software and processed using GraphPad Prism 5.

[3] = system: ICR mice icv-injected with Aβ1–42; experiment: Y maze spontaneous alternation, mice model with icv-injection of Aβ1–42; type: in vivo; conditions: ip, once a day
Description: as §1, §2
Spontaneous alternation (Y maze) test was used to assess working memory in mice. […] The experimental data recorded the number of times the animal entered the three arms in a row. […] The behavior of mice in the Y maze was recorded by Xeye Aba and processed by GraphPad Prism 5.

[4] = molecular target: hBChE (Homo sapiens, UniProt P06276); conditions: expected nearly identical to compound 11 of the previous study (same carbamoyl residue at Ser198); cited from earlier work
[5] = Plasma and brain distribution profile in mice; conditions: 1 mg/kg, intravenous and peroral
Description: Animals All mice used were 9–15 weeks old wild-type BALB/c mice bred in the Laboratory of Animal Genomics at the Faculty of Veterinary Medicine, University of Ljubljana. For intravenous administration, 4 males and one female were additionally purchased from Envigo RMS Holding Corp. Mice were conventionally bred in open polycarbonate cages (Tecniplast, Buguggiate, Italy) and provided with wood chip bedding (Lignocel®, Rettenmaier and Sons, Germany). Mice were kept under standard conditions, i.e., a 12:12 dark–light cycle (LED, CCT 3000 K, ≤ 25 lux above the cage), at temperature 21–24 °C, and 50%–60% humidity. They were fed irradiated rodent diet with minimal levels of phytoestrogens (Teklad global 16% protein rodent diet®, BN 2916, Envigo, Udine, Italy) and had access to drinkable tap water ad libitum.
For each time point, 4 mice, two females and two males, were used. A total of 24 animals were used (n = 24) for each route of administration. […] Peroral administration was performed via flexible plastic feeding tubes (20G × 30 mm, Instech Laboratories, USA) by gavage, with volume dose of 200 μL/20 g body weight. Intravenous administration into the tail vein was performed under isoflurane inhalation anesthesia (Isoflurin®, VetPharma, Spain) using a syringe (INSULIN100, 29G × 1/2″, 12.7 mm, CHINS00329, Chirana T. Injecta, a.s., Slovakia) with a volume dose of 150 μL. […]

Chain of hBChE (P06276 29-602): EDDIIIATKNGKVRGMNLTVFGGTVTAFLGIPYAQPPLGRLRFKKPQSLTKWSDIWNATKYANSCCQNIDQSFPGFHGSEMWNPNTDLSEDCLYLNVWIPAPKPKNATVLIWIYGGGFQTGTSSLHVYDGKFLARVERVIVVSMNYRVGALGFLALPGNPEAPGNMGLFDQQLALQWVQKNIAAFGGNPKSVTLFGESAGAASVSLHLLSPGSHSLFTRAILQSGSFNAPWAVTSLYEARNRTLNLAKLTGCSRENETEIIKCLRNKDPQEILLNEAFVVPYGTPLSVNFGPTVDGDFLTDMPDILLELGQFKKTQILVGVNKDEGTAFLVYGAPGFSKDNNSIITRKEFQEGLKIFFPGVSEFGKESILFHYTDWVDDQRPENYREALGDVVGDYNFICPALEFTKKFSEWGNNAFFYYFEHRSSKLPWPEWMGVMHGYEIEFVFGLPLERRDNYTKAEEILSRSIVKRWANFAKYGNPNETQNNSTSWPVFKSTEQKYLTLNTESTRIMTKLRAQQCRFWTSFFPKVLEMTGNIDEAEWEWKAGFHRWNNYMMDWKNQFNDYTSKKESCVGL

SMILES: CCN(CC)C(=O)n1cnc(C2(CC)Cc3ccccc3C2)c1 [Compound 8, N,N-Diethyl-4-(2-ethylindan-2-yl)-1H-imidazole-1-carboxamide]
- t1/2 in aqueous solution ([1]; PBS:EtOH = 80:20, 10 mmol/L, during 48 h): stable
- % left after 24 h ([1]; PBS:EtOH = 95:5, 100 mg/L): 100.0%
- % left after 24 h ([1]; pH 2:EtOH = 95:5, 100 mg/L): 99.9%
- % left after 24 h ([1]; pH 4:EtOH = 95:5, 100 mg/L): 100.0%
- % left after 24 h ([1]; pH 6:EtOH = 95:5, 100 mg/L): 100.0%
- % left after 24 h ([1]; pH 10:EtOH = 95:5, 100 mg/L): 97.7%
- recognition memory in novel object recognition task [2]: restored recognition memory comparable or better than 4
- spontaneous alternation in the Y maze task [3]: increased spontaneous alternation
- kdecarb, decarbamoylation [4]: ∼0.22[53] ×10^–2 h^–1
- t1/2, decarbamoylation [4]: ∼318[53] h
- blood–brain barrier permeation [5]: quickly permeated the blood–brain barrier
